The target of assay [1] is T1, a-syn aggregates (Lewy bodies and Lewy neurites) (Homo sapiens, UniProt P37840).
T1 construct: performed on frozen human brain sections from different a-synucleinopathy cases; from tissue; host or cells: frozen human brain sections (PD, PDD, MSA, DLB, LBV; NDC as controls)
Briefly: High resolution micro-autoradiography of Example-4 [^3H-4] on PD tissue. In kind it is binding. Particulars: 20 nM. Here is the method:
(§1) The protocol was adapted from Marquie et al., 2015. Sections were incubated with tritiated example compound 4 (Example-4 [^3H-4]) or a reference Tau ligand ([^3H]-Tau-Ref at 20 nM for one hour at RT. Sections were then washed as follows: One time in ice-cold 50 mM Tris-HCl pH 7.4 buffer for one minute, two times in 70% ice-cold ethanol for one minute, one time in ice-cold 50 mM Tris-HCl pH 7.4 buffer for one minute and finally rinsed briefly in ice-cold distilled water. Sections were subsequently dried and then exposed to Ilford Nuclear Emulsion Type K5 (Agar Scientific, AGP9281) in a light-proof slide storage box. After five days, the sections were developed by immersing them successively in the following solutions: 1.) Ilford Phenisol Developer (1:5 dilution in H2O, Agar Scientific, AGP9106), 2.) Ilfostop solution (1:20 dilution in H2O, Agar Scientific, AGP9104), 3.) Ilford Hypam Fixer (1:5 dilution in H2O, Agar Scientific, AGP9183) and finally rinsed with H2O.
When indicated, immunostaining was also performed on the same section. For image acquisition, sections were mounted using ProLong Gold Antifade reagent (Invitrogen P36930) and imaged on a Panoramic150 Slide Scanner (3DHistech) with a 20× objective capturing separately brightfield and fluorescent images. […]

The target of assay [2] is T2, PD brain-derived a-syn aggregates (Homo sapiens, UniProt P37840).
T2 construct: from tissue; host or cells: human PD donor brain, sarkosyl-insoluble 100,000 x g pellet
Briefly: Saturation binding of Example-4 [^3H-4] by micro-radiobinding. Particulars: PD homogenates. The method, then:
PD brain-derived a-syn aggregates were spotted onto microarray slides. The slides were incubated with Example-4 [^3H-4] at increasing concentrations in the range of 1.56 nM to 80 nM. After incubation, slides were scanned by a real-time autoradiography system (BeaQuant instrument, ai4R). Quantification of the signal was performed by using the Beamage image analysis software (ai4R).

Assay [3] concerns pathological a-synuclein. Briefly: Autoradiography of Example-4 [^3H-4] in brain sections from PD, MSA and NDC donors. It counts as binding, human. To be noted: 10 nM. The method, then: Frozen human brain sections from one familial PD case (a-synuclein [SNCA] gene G51 D missense mutation), labelled as SNCA, one idiopathic PD case, one MSA case and two non-demented control (NDC) cases were first briefly fixed for 15 minutes at 4° C. with 4% paraformaldehyde (Sigma, 252549) and washed three times for five minutes with PBS (Dulbecco's phosphate buffered saline, Sigma) at RT. All slides were then equilibrated for 20 minutes in 50 mM Tris-HCl pH 7.4 buffer prior to use in the experiment. Each brain section was incubated with a fixed concentration (10 nM) of tritiated example compound 4 (Example-4 [^3H-4]) in Tris-HCl buffer for two hours at RT (Total binding, ‘Total’). […] The slides were washed and then exposed and scanned in a real-time autoradiography system (BeaQuant instrument, ai4R).

For assay [4], the system named is Tau aggregates. Briefly: Micro-autoradiography of Example-4 [^3H-4] on AD tissue. In kind it is binding, human. To be noted: AD brain tissue, compared to [^3H]-Tau-Ref. Here is the method:
as §1

Assay [5] deals with T3, Abeta pathological aggregates (Homo sapiens, UniProt P05067).
T3 construct: Abeta pathological aggregates present in the human AD brain homogenates; from tissue; host or cells: human AD donor brain, Triton/sucrose-insoluble 100,000 x g pellet
The assay can be described thus: Radiobinding competition assay against [^3H]-Abeta-Ref on AD brain homogenates (example compound 4). In kind it is binding. Particulars: displacement of [^3H]-Abeta-Ref at 10 nM, AD brain-derived homogenates. Here is the method:
The procedure was adapted from the protocol described in Bagchi et al., 2013. Frozen tissue blocks from AD donors were thawed on ice and homogenized in high salt buffer (50 mM Tris-HCl pH 7.5, 0.75M NaCl, 5 mM EDTA) supplemented with protease inhibitors (Complete; Roche 11697498001) at 4° C. using a glass Dounce homogenizer. The homogenate was centrifuged at 100,000×g (38,000 RPM) in an ultracentrifuge (Beckman, XL100K) for one hour at 4° C. using a pre-cooled 70.1 rotor (Beckman, 342184). Pellets were resuspended in high salt buffer supplemented with 1% Triton X-100 and homogenized at 4° C. using a glass Dounce homogenizer. The homogenates were centrifuged again at 100,000×g (38,000 RPM, 70.1 rotor) for one hour at 4° C. Pellets were resuspended in high salt buffer supplemented with 1% Triton X-100 and 1 M sucrose and homogenized at 4° C. using a glass Dounce homogenizer. The homogenates were centrifuged at 100,000×g (38,000 RPM, 70.1 rotor) for one hour at 4° C. […]
A fixed concentration of AD insoluble fraction was incubated with a tritiated reference Abeta ligand ([^3H]-Abeta-Ref) at 10 nM and increasing concentrations of non-radiolabelled example compound 1 in the range of 400 pM to 2 μM for two hours at RT. […] The filters were analyzed on a Microbeta2 scintillation counter (PerkinElmer). […]

Assay [6] concerns the target T2, PD brain-derived a-syn aggregates. The assay can be described thus: Micro-radiobinding competition assay against Example-1 [^3H-1] (Table 8). In kind it is binding. A digest of the protocol:
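Human PD brain-derived α-syn aggregates on microarray slides were co-incubated with 6 nM or 20 nM tritiated radioligand and unlabelled compound at 1 μM and 100 nM, some over 0.05 nM–2 μM. Bound signal read by real-time autoradiography; values are % competition, at least two technical replicates, mean of independent experiments.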

Each structure is given as a SMILES string. pKd, pKi: −log10 of the molar value. “Also recorded” adds a separate entry of the source.

T3 sequence (P05067 672-713 limits assumed): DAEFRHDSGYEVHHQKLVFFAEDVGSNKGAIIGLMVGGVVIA

On to `[3H]C([3H])([3H])n1cc(N2Cc3nn(-c4ccc(N5CC[C@@H](F)C5)nc4)cc3C2=O)cn1` [Example-4 [^3H-4]], for which the “target engagement on Lewy bodies and Lewy neurites (silver grains)” value in assay [1] is “Accumulation of silver grains on Lewy bodies and Lewy neurites; also recorded: strong target engagement”. The same molecule showed a pKd in assay [2] of 7.68. The “signal in non-diseased control cases” value in assay [3] is reported as “very weak signal”. Further, in assay [3] (MSA, familial PD, idiopathic PD), the “specific binding in a-synucleinopathy tissues” value is reported as “specific binding”. Also, the “target engagement on Tau aggregates” value in assay [4] is listed as “did not display specific target engagement”; in assay [4] (listed as Example-4 [^3H-1]), “No accumulation of silver grains”.
Take `Cn1cc(N2Cc3nn(-c4ccc(N5CC[C@@H](F)C5)nc4)cc3C2=O)cn1` [Example 4]: the results for the negative logarithm of the Ki (pKi) in assay [5] and in assay [6] (mean of Ki values in independent experiments using PD brain-derived homogenates from three different donors) were 6.53 and 7.30, respectively. Moreover, the “Competition at 100 nM (%)” value in assay [6] (100 nM non-radiolabelled example compound vs Example-1 [^3H-1] ligand, human PD brain-derived a-syn aggregates) is 58%. For the same molecule, in assay [6] (1 μM non-radiolabelled example compound vs Example-1 [^3H-1] ligand, human PD brain-derived a-syn aggregates), the “Competition at 1 μM (%)” value was found to be 92%.

By pKd is commonly meant the negative decadic logarithm of the Kd, by convention in mol/L. Higher therefore signals a low Kd. Usually pKi stands for the negative decadic logarithm of the Ki, by convention in mol/L.

Source of the values: patent US12552800B2, “Compounds for diagnosis” (AC IMMUNE SA, priority 2020, dated 2026).
